Data as given in ChEMBL document CHEMBL5036362, “Salidroside Promotes Sensitization to Doxorubicin in Human Cancer Cells by Affecting the PI3K/Akt/HIF Signal Pathway and Inhibiting the Expression of Tumor-Resistance-Related Proteins” (J Nat Prod, 2022).
The source made the active and inactive calls. No cut-off for these calls is given here.

Legend:
[1] = Induction of MDR1 gene expression in human HeLa cells by qRT-PCR analysis; assay type: functional
[2] = system: HeLa; experiment: Cytotoxicity against human HeLa cells assessed as reduction in cell viability measured after 48 hrs by CCK-8 assay; assay type: functional
[3] = system: HeLa; experiment: Induction of morphological change in human HeLa cells assessed as cell shrinkage measured after 48 hrs by CCK-8 assay; assay type: functional, cell-based
[4] = system: HeLa; experiment: Induction of morphological change in human HeLa cells assessed as reduction in size measured after 48 hrs by CCK-8 assay; assay type: functional, cell-based
[5] = system: HeLa; experiment: Antimigratory activity against human HeLa cells at 0.22 uM measured upto 48 hrs by electron microscope based Wound healing assay relative to control; assay type: functional; conditions: time hrs <=48
[6] = system: HeLa; experiment: Antitumor activity against human HeLa cells xenografted in BALB/c nude mouse assessed as tumor growth inhibition at 1 mg/kg, ip administered every 2 days for 18 days by firefly luciferase based bioluminescence assay; assay type: functional, organism-based; conditions: time 18.0 day
[7] = Toxicity in BALB/c nude mouse xenografted with human HeLa cells assessed as inflammation in myocardial tissue at 1 mg/kg, ip administered every 2 days for 18 days by H and E staining; assay type: organism-based, Myocardium/plasma; conditions: in vivo, 432 h, time 18 day
[8] = Toxicity in BALB/c nude mouse xenografted with human HeLa cells assessed as induction of convulsions at 1 mg/kg, ip administered every 2 days for 18 days; assay type: organism-based; conditions: in vivo, 432 h, time 18 day
[9] = Toxicity in BALB/c nude mouse xenografted with human HeLa cells assessed as induction of breathing difficulties at 1 mg/kg, ip administered every 2 days for 18 days; assay type: organism-based; conditions: in vivo, 432 h, time 18 day
[10] = Toxicity in BALB/c nude mouse xenografted with human HeLa cells assessed as induction of fainting at 1 mg/kg, ip administered every 2 days for 18 days; assay type: organism-based; conditions: in vivo, 432 h, time 18 day
[11] = Toxicity in BALB/c nude mouse xenografted with human HeLa cells assessed as induction of incontinence at 1 mg/kg, ip administered every 2 days for 18 days; assay type: organism-based; conditions: in vivo, 432 h, time 18 day
[12] = Toxicity in BALB/c nude mouse xenografted with human HeLa cells assessed as change in body weight at 1 mg/kg, ip administered every 2 days for 18 days; assay type: organism-based; conditions: in vivo, 432 h, time 18 day
[13] = system: HeLa; experiment: Cytotoxicity against human HeLa cells assessed as potentiation of doxorubicin induced cell survival measured after 72 hrs by CCK-8 assay; assay type: functional
[14] = Decrease in MDR1 gene expression in human HeLa cells by qRT-PCR analysis; assay type: functional; conditions: dose 0.017 mol/L; time 48 hrs
[15] = system: HeLa; experiment: Inhibition of hypoxia-inducible factor 1 alpha in DOX induced human HeLa cells assessed as downregulation of protein at 0.017 mmol/L after 48 hrs by Western blotting analysis; assay type: functional
[16] = system: Mus musculus; experiment: Effect on DOX induced tissue damage in BALB/c nude mouse xenografted with human HeLa cells assessed as spleen enlargement at 80 mg/kg, ig administered every 2 days for 18 days by H and E staining; assay type: functional, organism-based
[17] = system: Mus musculus; experiment: Effect on DOX induced tissue damage in BALB/c nude mouse xenografted with human HeLa cells assessed as appearance of lesions in glomerular tubule at 80 mg/kg, ig for administered every 2 days for 18 days by H and E staining; assay type: functional, organism-based; conditions: Renal glomerulus, time 18.0 day
[18] = system: Mus musculus; experiment: Effect on DOX induced tissue damage in BALB/c nude mouse xenografted with human HeLa cells assessed as inflammatory cell infiltration in liver at 80 mg/kg, ig administered every 2 days for 18 days by H and E staining; assay type: functional, organism-based; conditions: time 18.0 day
[19] = system: HeLa; experiment: Induction of morphological change in human HeLa cells assessed as potentiation of doxorubicin induced cell shrinkage measured after 48 hrs in by CCK-8 assay; assay type: functional, cell-based
[20] = system: HeLa; experiment: Induction of morphological change in human HeLa cells assessed as potentiation of doxorubicin induced reduction in size measured after 48 hrs in presence of doxorubicin by CCK-8 assay; assay type: functional, cell-based
[21] = system: HeLa; experiment: Antiproliferative activity against human HeLa cells assessed as inhibition of cell proliferation measured after 48 hrs by CCK-8 assay; assay type: functional, cell-based
[22] = system: HeLa; experiment: Antimigratory activity against human HeLa cells at 0.017 mmol/L measured upto 48 hrs by electron microscope based Wound healing assay relative to control; assay type: functional; conditions: time hrs <=48
[23] = system: HeLa; experiment: Inhibition of potentiation of doxorubicin induced cell migration in human HeLa cells measured upto 48 hrs by electron microscope based Wound healing assay relative to control; assay type: functional; conditions: time hrs <=48
[24] = system: HeLa; experiment: Antitumor activity against human HeLa cells xenografted in BALB/c nude mouse assessed as tumor growth inhibition at 80 mg/kg, ig for administered every 2 days for 18 days by firefly luciferase based bioluminescence assay; assay type: functional, organism-based; conditions: time 18.0 day
[25] = system: HeLa; experiment: Antitumor activity against human HeLa cells xenografted in BALB/c nude mouse assessed as potentiation of doxorubicin induced tumor growth inhibition at 80 mg/kg, ig administered every 2 days for 18 days by firefly luciferase based bioluminescence assay; assay type: functional, organism-based; conditions: time 18.0 day
[26] = Toxicity in BALB/c nude mouse xenografted with human HeLa cells assessed as potentiation of doxorubicin induced inflammation in myocardial tissue at 80 mg/kg, ig administered every 2 days for 18 days by H and E staining; assay type: organism-based, Myocardium/plasma; conditions: in vivo, po, 432 h, time 18 day
[27] = system: HeLa; experiment: Downregulation of Bcl-2 protein expression in human HeLa cells after 48 hrs by western blotting analysis; assay type: functional, cell-based
[28] = system: HeLa; experiment: Downregulation of MMP-2 protein expression in human HeLa cells after 48 hrs by western blotting analysis; assay type: functional, cell-based
[29] = system: HeLa; experiment: Downregulation of MMP-9 protein expression in human HeLa cells after 48 hrs by western blotting analysis; assay type: functional, cell-based
[30] = system: HeLa; experiment: Downregulation of PI3K protein expression in human HeLa cells after 48 hrs by western blotting analysis; assay type: functional, cell-based
[31] = system: HeLa; experiment: Downregulation of AKT protein expression in human HeLa cells after 48 hrs by western blotting analysis; assay type: functional, cell-based
[32] = system: HeLa; experiment: Upregulation of BAX protein expression in human HeLa cells after 48 hrs by western blotting analysis; assay type: functional, cell-based
[33] = system: HeLa; experiment: Downregulation of doxorubicin induced Bcl-2 protein expression in human HeLa cells after 48 hrs by western blotting analysis; assay type: functional, cell-based
[34] = system: HeLa; experiment: Downregulation of doxorubicin induced MMP-2 protein expression in human HeLa cells after 48 hrs by western blotting analysis; assay type: functional, cell-based
[35] = system: HeLa; experiment: Downregulation of doxorubicin induced MMP-9 protein expression in human HeLa cells after 48 hrs by western blotting analysis; assay type: functional, cell-based
[36] = system: HeLa; experiment: Downregulation of doxorubicin induced PI3K protein expression in human HeLa cells after 48 hrs by western blotting analysis; assay type: functional, cell-based
[37] = system: HeLa; experiment: Downregulation of doxorubicin induced AKT protein expression in human HeLa cells after 48 hrs by western blotting analysis; assay type: functional, cell-based
[38] = system: HeLa; experiment: Upregulation of doxorubicin induced BAX protein expression in human HeLa cells after 48 hrs by western blotting analysis; assay type: functional, cell-based
[39] = Decrease in MDR1 gene expression in DOX induced human HeLa cells by RT-PCR analysis; assay type: functional
[40] = Toxicity in BALB/c nude mouse xenografted with human HeLa cells assessed as induction of convulsions at 80 mg/kg, ig administered every 2 days for 18 days; assay type: organism-based; conditions: in vivo, po, 432 h, time 18 day
[41] = Toxicity in BALB/c nude mouse xenografted with human HeLa cells assessed as induction of breathing difficulties at 80 mg/kg, ig administered every 2 days for 18 days; assay type: organism-based; conditions: in vivo, po, 432 h, time 18 day
[42] = Toxicity in BALB/c nude mouse xenografted with human HeLa cells assessed as induction of fainting at 80 mg/kg, ig administered every 2 days for 18 days; assay type: organism-based; conditions: in vivo, po, 432 h, time 18 day
[43] = Toxicity in BALB/c nude mouse xenografted with human HeLa cells assessed as induction of incontinence at 80 mg/kg, ig administered every 2 days for 18 days; assay type: organism-based; conditions: in vivo, po, 432 h, time 18 day
[44] = Toxicity in DOX induced BALB/c nude mouse xenografted with human HeLa cells assessed as induction of convulsions at 80 mg/kg, ig administered every 2 days for 18 days; assay type: organism-based; conditions: in vivo, po, 432 h, time 18 day
[45] = Toxicity in DOX induced BALB/c nude mouse xenografted with human HeLa cells assessed as induction of breathing difficulties at 80 mg/kg, ig administered every 2 days for 18 days; assay type: organism-based; conditions: in vivo, po, 432 h, time 18 day
[46] = Toxicity in DOX induced BALB/c nude mouse xenografted with human HeLa cells assessed as induction of fainting at 80 mg/kg, ig administered every 2 days for 18 days; assay type: organism-based; conditions: in vivo, po, 432 h, time 18 day
[47] = Toxicity in DOX induced BALB/c nude mouse xenografted with human HeLa cells assessed as induction of incontinence at 80 mg/kg, ig administered every 2 days for 18 days; assay type: organism-based; conditions: in vivo, po, 432 h, time 18 day
[48] = Toxicity in BALB/c nude mouse xenografted with human HeLa cells assessed as change in body weight at 80 mg/kg, ig administered every 2 days for 18 days; assay type: organism-based; conditions: in vivo, po, 432 h, time 18 day
[49] = Toxicity in DOX induced BALB/c nude mouse xenografted with human HeLa cells assessed as change in body weight at 80 mg/kg, ig administered every 2 days for 18 days; assay type: organism-based; conditions: in vivo, po, 432 h, time 18 day
[50] = system: HeLa; experiment: Antitumor activity against DOX induced human HeLa cells xenografted in BALB/c nude mouse assessed as induction of apoptosis by measuring increase in TUNEL positive nuclei at 80 mg/kg, ig administered every 2 days for 18 days by TUNEL staining based assay; assay type: functional, organism-based; conditions: time 18.0 day

Question: Which Activity [1] does the source give for `COc1cccc2c1C(=O)c1c(O)c3c(c(O)c1C2=O)C[C@@](O)(C(=O)CO)C[C@@H]3O[C@H]1C[C@H](N)[C@H](O)[C@H](C)O1` [DOXORUBICIN] here?
Answer: 8.69

Question: And the Activity [2]?
Answer: 2.67 µM

Question: What about the Activity [3] of the same compound?
Answer: Active

Question: What about the Activity [4] of the same compound?
Answer: Active

Question: And the Activity [5]?
Answer: 57.14%

Question: And the Activity [6]?
Answer: inactive

Question: And the Activity [7]?
Answer: Toxic

Question: What about the Activity [8] of the same compound?
Answer: Non-Toxic

Question: What about the Activity [9] of the same compound?
Answer: Non-Toxic

Question: And the Activity [10]?
Answer: Non-Toxic

Question: And the Activity [11]?
Answer: Non-Toxic

Question: What about the Activity [12] of the same compound?
Answer: Non-Toxic

Question: What does the source list for `OC[C@H]1O[C@@H](OCCc2ccc(O)cc2)[C@H](O)[C@@H](O)[C@@H]1O` [SALIDROSIDE]?
Answer: Activity [13]: >85%; Activity [14]: 1.65; Activity [2]: 0.183 µM; Activity [15]: Active; Activity [16]: inactive; Activity [17]: inactive; Activity [18]: inactive; Activity [3]: Active; Activity [4]: Active; Activity [19]: Active; Activity [20]: Active; IC50 [21]: 10.5 µM; Activity [22]: 56.34%; inhibition (INH) [23]: 18.95%; Activity [24]: Active; Activity [25]: Active; Activity [26]: Non-Toxic; Activity [27]: Active; Activity [28]: Active; Activity [29]: Active; Activity [30]: Active; Activity [31]: Active; Activity [32]: Active; Activity [33]: Active; Activity [34]: Active; Activity [35]: Active; Activity [36]: Active; Activity [37]: Active; Activity [38]: Active; Activity [39]: 2.76; Activity [40]: Non-Toxic; Activity [41]: Non-Toxic; Activity [42]: Non-Toxic; Activity [43]: Non-Toxic; Activity [44]: Non-Toxic; Activity [45]: Non-Toxic; Activity [46]: Non-Toxic; Activity [47]: Non-Toxic; Activity [48]: Non-Toxic; Activity [49]: Non-Toxic; Activity [50]: Active
